Assay results: patent US20110091375A1, “USE OF THE COMBINATION COMPRISING TEMOZOLOMIDE AND TNF-ALPHA FOR TREATING GLIOBLASTOMA” (THE UNIVERSITY OF CHICAGO, priority 2004, published 2011)

What was measured:
[1] = tested on: U87 intracranial xenografts; assay: Intracranial glioma xenograft survival; format: in vivo, nude mice; details: first intracranial experiment; TMZ 20 mg/kg total IP, single IC Ad.Egr-TNF
Description: Intracranial Studies: In two separate experiments, 5×10^5 U87 cells were inoculated into the right caudate nucleus on day 0 using a screw guide technique (Lal, S. et al. (2000) J Neurosurg 92:326-333). In the first experiment, mice were randomized into four groups as described above in Example 4. On day 5, a single intracranial (IC) injection of 5×10^8 pu Ad.Egr-TNF in 5 μl volume was made directly into the tumor using the screw guide technique. TMZ (5 mg/kg) was given IP 3 h after IC vector inoculation. Three additional IP TMZ injections were administered on consecutive days for a total dose of 20 mg/kg. Control animals received SFM IT and IP.
(§1) In a second experiment, mice were randomized into eight groups (untreated control (UTC); intratumoral (IT) Ad.Egr-TNF alone; intraperitoneal (IP) TMZ alone; IR alone; Ad.Egr-TNF and TMZ; Ad.Egr-TNF and IR; TMZ and IR; and Ad.Egr-TNF, TMZ and IR). A single dose of 5×10^5 U87 cells was inoculated into the right caudate nucleus of each mouse on day 0 using a screw guide technique (Lal, S. et al. (2000) J Neurosurg 92:326-333). On day 5, 5×10^8 pu Ad.Egr-TNF in 5 μL volume was injected once via the screw guide directly into the tumor. Beginning two hours after vector injection, 5 Gy IR was delivered to the tumor area and repeated every 2-3 days to a total of 30 Gy. […]

[2] = tested on: U87 intracranial xenografts; assay: Histological analysis and TUNEL of intracranial tumor sections; format: in vivo, nude mice; details: day 7
Description: as §1, with “Gy. TMZ (5 mg/kg) was given IP 3 h after vector inoculation and like doses were given daily for the next two days for a total dose of 15 mg/kg. Control animals received SFM IT and IP and were also placed in Lucite chambers. Daily assessment of animal appearance was made.” for “Gy.”
Paraffin embedded brains were sectioned (8 μm), stained with hematoxylin and eosin and analyzed in a blinded fashion.
Terminal deoxynucleotidyl transferase-mediated dUTP-biotin nick end-labeling (TUNEL) assay was performed in accordance with the manufacturer's instructions (Chemicon) and analyzed blindly at 400× magnification by use of a computer-aided light microscope with reconstruction software (Neurolucida, Microbrightfield, Vt.). […]

NF-κB = NF-κB nuclear translocation and DNA binding (nuclear extracts, EMSA); format: cell-based, human
Description: Confluent cultures of U87 cells were grown in complete medium and then left untreated or treated with 10 ng/mL TNFα for 20 m and 1 h+/−16 h pre-treatment with 100 μM TMZ (or 0.1% DMSO control vehicle). Cells were then washed with 10 mL ice-cold PBS, scraped from the dish, and pelleted by centrifugation at 1000 rpm for 5 m at 4° C. Cell pellets were resuspended in 400 μl of ice-cold buffer A (10 mM HEPES, pH 7.9; 10 mM KCl; 0.1 mM EDTA; 1 mM DTT; 0.5 mM phenylmethysulfonylfluoride [PMSF]; 1 μg/mL leupeptin; 5 μg/mL aprotinin) and allowed to swell on ice for 15 m. Following the addition of 25 μl of 10% NP-40, the suspension was vortexed for 10 s and centrifuged at 14,500 rpm for 1 m at 4° C. Nuclei were resuspended in 50 μl of ice-cold buffer B (20 mM HEPES, pH 7.9; […]; 1 mM EDTA; 1 mM DTT; 1 mM PMSF; 25% glycerol; 1 μg/mL leupeptin; 5 μg/mL aprotinin) and incubated on ice for 15 m. […] Protein concentrations for each sample were determined by the Bradford method (Bio-Rad, Richmond, Calif., USA) and were adjusted to 2 μg/μl by the addition of buffer B. […]
20 μg of whole U87 cell (or nuclear) lysate was subjected to sodium dodecyl sulfate (SDS)-polyacrylamide gel electrophoresis (PAGE). […] Immunoreactive bands were detected by SuperSignal enhanced chemiluminescence (ECL) (Pierce, Rockford, Ill., USA) and exposed to Kodak X-Omat film.

JNK = JNK phosphorylation (activation), Western blot; format: cell-based, human; details: glioma cells
Description: 20 μg of whole U87 cell (or nuclear) lysate was subjected to sodium dodecyl sulfate (SDS)-polyacrylamide gel electrophoresis (PAGE). Following electro-transfer, Immobilon-P membranes (Millipore Corp. Burlington, Mass., USA.) were probed with primary polyclonal antibody against IκBα, phospho-Ser32-IκBα, SAPK/JNK, phospho-Thr183/Tyr185-SAPK/JNK, p65, phospho-Ser536-p65 (Cell Signaling Technology Inc. Beverly, […]., USA) diluted 1:1000 overnight at 4° C. Anti-rabbit IgG HRP-linked secondary antibody (Cell Signaling Technology) was diluted 1:1000 in blocking buffer and applied for 1 h at room temperature. Immunoreactive bands were detected by SuperSignal enhanced chemiluminescence (ECL) (Pierce, Rockford, Ill., USA) and exposed to Kodak X-Omat film.

NF-κB in glioma cells = assay: IR- and TNFα-induced NF-κB activity and nuclear translocation; format: cell-based; details: co-treatment with TNFα and IR

Cn1nnc2c(C(N)=O)ncn2c1=O [TMZ, temozolomide]
median survival [1]: 28 days
TUNEL positive cells [2]: 14±12 TUNEL^+ cells/10^−6 mm^2
TNFα-induced NF-κB DNA binding (NF-κB): does not directly affect
TNFα-induced NF-κB nuclear translocation (NF-κB; glioma cells): inhibiting NF-κB nuclear translocation
JNK phosphorylation (activation) (JNK): progressive and delayed activation
NF-κB transcriptional activity and nuclear translocation increased by TNFα and IR (NF-κB in glioma cells): inhibited
